Reference: patent publication US12053447B2, “Oral solution and powder to liquid compositions of balsalazide” (NuBioPharma, LLC, priority 2019, dated 2024)
Residues, ends and D or L forms follow the SMILES beside them.

How the values were obtained:
[1] = Stability of sweetener aspartame in solution; type: physicochemical; settings: pH 7.0 and above
[2] = Storage stability of liquid balsalazide solution (HPLC assay, settling); type: physicochemical
Description: The storage stability of two balsalazide disodium solutions, 750 mg/5 ml, with the formulations described in TABLE 6 and TABLE 7 with pH of 4.8 and pH 7.2, respectively were subjected to accelerated stability testing at 40° C. and at room temperature (25° C.). Balsalazide solutions stored in amber PVC bottles (30 ml volume) were tested over a 90-day storage period. The amount of balsalazide and its known impurities were determined by a validated high pressure liquid chromatography (HPLC) assay after 0 day (initial), 45 days, and 90 days and results are shown in TABLE 6 below. Five minor impurities (less than 0.1% each) were identified in balsalazide solution initially on day 0.

Compound	stability in solution [1]	stability of oral solution ([2]; acidic conditions of pH below 7.0)	stability of oral solution ([2]; pH of 7.0 or higher)
COC(=O)[C@H](Cc1ccccc1)NC(=O)[C@@H](N)CC(=O)O [aspartame] (H-Asp-Phe-OMe)	unstable		
O=C(O)CCNC(=O)c1ccc(/N=N/c2ccc(O)c(C(=O)O)c2)cc1 [balsalazide]		unstable	stable
